Assay results as given in patent publication US20080051418A1, “Arylalkanoic Acid Derivative” (priority 2004, published 2008).
pEC50: −log10 of the molar value. Counter-ions that a name gives are not always drawn. Like-named read-outs stand apart in the source and are kept apart here.

Tests used:
[1] = test system: KKA^y mice; assay: Blood glucose and blood lipid (triglyceride) lowering action in mice; format: in vivo; conditions: Mus musculus, po, 96 h, 0.005% in powder diet, 4 days, non-administration group = 100%
Text: The test compound was mixed with a powder diet (CE-2, CLEA JAPAN, INC.) at a proportion of 0.005% (0.01% for the compound of Example 105) and freely given to KKA^y mice (9 to 12-week-old, 5 mice per group) which are obesity-insulin independent diabetes mellitus (type-2 diabetes) models, for 4 days. During this period, water was freely given. The blood was drawn from the orbital venous plexus. Glucose and triglyceride in the plasma separated from the blood were quantitated using L Type Wako Glu2 (Wako Pure Chemical Industries, Ltd.) and L Type Wako TG•H (Wako Pure Chemical Industries, Ltd.), respectively, according to an enzyme method.

[2] = biological target: T1, PPARγ-RXRα heterodimer (Homo sapiens, UniProt P37231); assay: PPARγ-RXRα heterodimer ligand activity (luciferase reporter); format: cell-based; conditions: PPARγ:RXRα:4ERPP/CHO-K1 cells, 18-24 hr, concentration showing 50% of the maximum induction rate
T1 construct: expressed in transfected cells; host or cells: CHO-K1
T1 sequence (P37231 1-505): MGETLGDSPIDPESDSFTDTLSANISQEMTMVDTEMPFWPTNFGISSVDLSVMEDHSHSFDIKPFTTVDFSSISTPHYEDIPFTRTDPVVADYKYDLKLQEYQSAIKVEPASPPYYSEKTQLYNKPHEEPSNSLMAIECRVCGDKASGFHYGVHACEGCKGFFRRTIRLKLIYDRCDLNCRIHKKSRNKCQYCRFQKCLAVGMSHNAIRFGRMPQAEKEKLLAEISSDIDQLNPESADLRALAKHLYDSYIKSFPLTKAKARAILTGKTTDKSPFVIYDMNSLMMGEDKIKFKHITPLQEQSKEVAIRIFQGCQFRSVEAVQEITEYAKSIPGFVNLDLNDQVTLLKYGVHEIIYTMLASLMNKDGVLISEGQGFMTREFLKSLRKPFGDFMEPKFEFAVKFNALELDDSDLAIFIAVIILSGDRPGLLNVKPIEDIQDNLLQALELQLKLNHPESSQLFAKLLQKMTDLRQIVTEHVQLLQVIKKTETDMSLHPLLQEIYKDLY
T1 sequence (P19793 1-462 partner): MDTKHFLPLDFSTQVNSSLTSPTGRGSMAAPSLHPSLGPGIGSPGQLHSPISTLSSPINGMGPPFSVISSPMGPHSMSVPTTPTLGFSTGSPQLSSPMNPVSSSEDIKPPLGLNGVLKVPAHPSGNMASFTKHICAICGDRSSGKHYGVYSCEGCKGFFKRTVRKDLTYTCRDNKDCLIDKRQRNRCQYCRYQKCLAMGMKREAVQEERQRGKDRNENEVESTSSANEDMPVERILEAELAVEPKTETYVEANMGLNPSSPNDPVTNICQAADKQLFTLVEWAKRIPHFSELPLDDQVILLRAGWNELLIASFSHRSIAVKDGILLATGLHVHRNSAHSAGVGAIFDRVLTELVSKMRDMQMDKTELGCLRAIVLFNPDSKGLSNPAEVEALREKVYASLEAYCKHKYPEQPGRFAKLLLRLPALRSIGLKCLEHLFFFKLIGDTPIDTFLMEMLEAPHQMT
Procedure: The PPARγ:RXRα:4ERPP/CHO-K1 cells described in WO03/099793 were cultured in a Ham F12 medium [manufactured by Life Technologies, Inc., US] containing 10% calf fetal serum [manufactured by Life Technologies, Inc., US], sown in a 96-well white plate [manufactured by Corning Coster Corporation, US] at 2×10^4 cells/well, and incubated overnight in a carbon dioxide gas incubator at 37° C.
Then, the medium was removed from the 96 well white plate, 80 μl of Ham F12 medium containing 0.1% fatty acid-free bovine serum albumin (BSA) and a test compound (20 μl) were added, and the cells were incubated for 18-24 hr in a carbon dioxide gas incubator at 37° C. The medium was removed, 40 μl of PicaGene 7.5 (manufactured by Wako Pure Chemical Industries, Ltd.) diluted 2-fold with HBSS (HANKS' BALANCED SALT SOLUTION) [manufactured by BIO WHITTAKER, US] was added. After stirring, the luciferase activity was determined using the 1420 ARVO Multilabel Counter [manufactured by PerkinElmer, US].
The induction rate was calculated from the luciferase activity of each test compound based on the luciferase activity of the test compound non-administration group as 1. The test compound concentration and the induction rate were analyzed by PRISM [manufactured by GraphPad Software, Inc., US] to calculate EC50 value (compound concentration showing 50% of the maximum value of induction rate) of the test compound.

[3] = lowering rate of plasma glucose, read-out: hypoglycemic action (%)
[4] = lowering rate of plasma triglyceride, read-out: hypolipidemic action (%)

COc1cccc(CC(=O)O)c1OCCCc1cc(OC(C)C)nn1Cc1ccccc1Cl [Example 61, (2-{3-[1-(2-chlorobenzyl)-3-isopropoxy-1H-pyrazol-5-yl]propoxy}-3-methoxyphenyl)acetic acid]
inhibition in vivo at 0.005 % [1, 3]: 51% | inhibition in vivo at 0.005 % [1, 4]: 90% | pEC50 [2]: 7.60

COc1cccc(CC(=O)O)c1OCCCc1cc(OC(C)C)nn1Cc1ccccc1C [Example 21, (2-{3-[3-isopropoxy-1-(2-methylbenzyl)-1H-pyrazol-5-yl]propoxy}-3-methoxyphenyl)acetic acid]
inhibition in vivo at 0.005 % [1, 3]: 51% | inhibition in vivo at 0.005 % [1, 4]: 78% | pEC50 [2]: 7.39

CC(C)c1cc(CCCOc2ncccc2CC(=O)O)n(Cc2ccc(C(F)(F)F)cc2Cl)n1 [Example 77, [2-(3-{1-[2-chloro-4-(trifluoromethyl)benzyl]-3-isopropyl-1H-pyrazol-5-yl}propoxy)pyridin-3-yl]acetic acid]
inhibition in vivo at 0.005 % [1, 3]: 63% | inhibition in vivo at 0.005 % [1, 4]: 42% | melting point: 114 to 115 °C | pEC50 [2]: 8.27

CC(C)Oc1ccc(CCCOc2cc(CCC(=O)O)n(Cc3ccccc3)n2)c(Oc2ncc(C(F)(F)F)cc2Cl)c1 [Example 137, 3-{1-benzyl-3-[3-(2-{[3-chloro-5-(trifluoromethyl)pyridin-2-yl]oxy}-4-isopropoxyphenyl)propoxy]-1H-pyrazol-5-yl}propanoic acid]
melting point: 99 to 100 °C | pEC50 [2]: 9.21

Cc1cc(Cl)ccc1Cn1nc(OC(C)C)cc1CCCOc1nn(Cc2ccccc2)cc1CC(=O)O [Example 73, (1-benzyl-3-{3-[1-(4-chloro-2-methylbenzyl)-3-isopropoxy-1H-pyrazol-5-yl]propoxy}-1H-pyrazol-4-yl)acetic acid]
melting point: 81 to 82 °C | pEC50 [2]: 8.52

CC(C)Oc1cc(CCCOc2ncccc2CC(=O)O)n(Cc2ccc(Cl)cc2Cl)n1 [Example 31, (2-{3-[1-(2,4-dichlorobenzyl)-3-isopropoxy-1H-pyrazol-5-yl]propoxy}pyridin-3-yl)acetic acid]
inhibition in vivo at 0.005 % [1, 3]: 44% | inhibition in vivo at 0.005 % [1, 4]: 55% | melting point: 88 to 90 °C | pEC50 [2]: 7.85

CC(C)Oc1cc(CCCOc2nn(Cc3ccccc3)cc2CC(=O)O)n(Cc2ccc(Cl)cc2Cl)n1 [Example 86, (1-benzyl-3-{3-[1-(2,4-dichlorobenzyl)-3-isopropoxy-1H-pyrazol-5-yl]propoxy}-1H-pyrazol-4-yl)acetic acid]
inhibition in vivo at 0.005 % [1, 3]: 51% | inhibition in vivo at 0.005 % [1, 4]: 51% | melting point: 108 to 110 °C | pEC50 [2]: 8.60

CC(C)c1cc(CCCOc2nn(C)cc2CC(=O)O)n(Cc2ccc(Cl)cc2Cl)n1 [Example 33, (3-{3-[1-(2,4-dichlorobenzyl)-3-isopropyl-1H-pyrazol-5-yl]propoxy}-1-methyl-1H-pyrazol-4-yl)acetic acid]
melting point: 67 to 68 °C | pEC50 [2]: 7.52

CCCOc1cc(CCCOc2c(CC(=O)O)cccc2OC)n(Cc2ccc(C(F)(F)F)cc2)n1 [Example 59, [3-methoxy-2-(3-{3-propoxy-1-[4-(trifluoromethyl)benzyl]-1H-pyrazol-5-yl}propoxy)phenyl]acetic acid]
melting point: 122 to 123 °C | pEC50 [2]: 7.64

Cc1cc(C(F)(F)F)ccc1Cn1nc(OC(C)C)cc1CCCOc1nn(Cc2ccccc2)cc1CC(=O)O [Example 78, [1-benzyl-3-(3-{3-isopropoxy-1-[2-methyl-4-(trifluoromethyl)benzyl]-1H-pyrazol-5-yl}propoxy)-1H-pyrazol-4-yl]acetic acid]
inhibition in vivo at 0.005 % [1, 3]: 63% | inhibition in vivo at 0.005 % [1, 4]: 55% | pEC50 [2]: 8.89

CCn1nc(OCCCc2ccc(OCCOC(C)C)cc2Oc2ncc(C(F)(F)F)cc2Cl)cc1CCC(=O)O [Example 150, 3-(3-{3-[2-{[3-chloro-5-(trifluoromethyl)pyridin-2-yl]oxy}-4-(2-isopropoxyethoxy)phenyl]propoxy}-1-ethyl-1H-pyrazol-5-yl)propanoic acid]
inhibition in vivo at 0.005 % [1, 3]: 58% | inhibition in vivo at 0.005 % [1, 4]: 54% | melting point: 130.5 to 131.5 °C | pEC50 [2]: 8.59

CC(C)c1cc(CCCOc2nn(Cc3ccccc3)cc2CC(=O)O)n(Cc2ccc(C(F)(F)F)cc2Cl)n1 [Example 76, [1-benzyl-3-(3-{1-[2-chloro-4-(trifluoromethyl)benzyl]-3-isopropyl-1H-pyrazol-5-yl}propoxy)-1H-pyrazol-4-yl]acetic acid 1/2 calcium salt]
inhibition in vivo at 0.005 % [1, 3]: 64% | inhibition in vivo at 0.005 % [1, 4]: 57% | pEC50 [2]: 8.82

CCCOc1cc(CCCOc2c(CC(=O)O)cccc2OC)n(Cc2ccc(F)cc2F)n1 [Example 82, (2-{3-[1-(2,4-difluorobenzyl)-3-propoxy-1H-pyrazol-5-yl]propoxy}-3-methoxyphenyl)acetic acid]
melting point: 77 to 80 °C | pEC50 [2]: 7.59

CCn1nc(OCCCc2ccc(OCCOC)cc2Oc2ncc(C(F)(F)F)cc2Cl)cc1CCC(=O)O [Example 149, 3-(3-{3-[2-{[3-chloro-5-(trifluoromethyl)pyridin-2-yl]oxy}-4-(2-methoxyethoxy)phenyl]propoxy}-1-ethyl-1H-pyrazol-5-yl)propanoic acid]
inhibition in vivo at 0.005 % [1, 3]: 57% | inhibition in vivo at 0.005 % [1, 4]: 51% | melting point: 101 to 103 °C | pEC50 [2]: 8.30

COc1cccc(CC(=O)O)c1OCCCc1cc(OC(C)C)nn1C(C)c1ccc(Cl)cc1Cl (centres unmarked) [Example 17, [2-(3-{1-[1-(2,4-dichlorophenyl)ethyl]-3-isopropoxy-1H-pyrazol-5-yl}propoxy)-3-methoxyphenyl]acetic acid]
inhibition in vivo at 0.005 % [1, 3]: 57% | inhibition in vivo at 0.005 % [1, 4]: 78% | pEC50 [2]: 8.21

COCOc1cc(CCCOc2nn(Cc3ccccc3)cc2CC(=O)O)n(Cc2ccc(Cl)cc2Cl)n1 [Example 95, (1-benzyl-3-{3-[1-(2,4-dichlorobenzyl)-3-(methoxymethoxy)-1H-pyrazol-5-yl]propoxy}-1H-pyrazol-4-yl)acetic acid]
inhibition in vivo at 0.005 % [1, 3]: 65% | inhibition in vivo at 0.005 % [1, 4]: 65% | melting point: 89.5 to 91.5 °C | pEC50 [2]: 8.62

CC(C)Oc1cc(CCCOc2ccc3ccccc3c2CC(=O)O)n(Cc2ccc(Cl)cc2Cl)n1 [Example 85, (2-{3-[1-(2,4-dichlorobenzyl)-3-isopropoxy-1H-pyrazol-5-yl]propoxy}-1-naphthyl)acetic acid]
melting point: 120 to 122 °C | pEC50 [2]: 8.59

COc1cccc(CC(=O)O)c1OCCCc1cc(OC(C)C)nn1Cc1ccc(F)cc1F [Example 60, (2-{3-[1-(2,4-difluorobenzyl)-3-isopropoxy-1H-pyrazol-5-yl]propoxy}-3-methoxyphenyl)acetic acid]
inhibition in vivo at 0.005 % [1, 3]: 54% | inhibition in vivo at 0.005 % [1, 4]: 76%
